According to patent publication US20050238634A1, “Method, compositions and kits for increasing the oral bioavailability of pharmaceutical agents” (Baker Norton Pharmaceuticals, Inc., priority 1995, published 2005):
Read-outs that look alike come from different tables or passages of the source.

Columns and labels:
[1] = male, Sprague-Dawley, rat, in vivo
[2] = 3H-etoposide IV, oral, oral with cyclosporin in rats, whole blood radioactivity (Example 6, NP960102); format: in vivo
[3] = etoposide capsules; cited from earlier work
[4] = reports in the literature; cited from earlier work
[5] = Sprague Dawley, rat, in vivo
[6] = in vivo; settings: Sprague Dawley, rat
[7] = not given; remark: listed apart in the source
[8] = test system: metastatic breast cancer; settings: continuous 96-hour infusion every three weeks; taxane-failure patients; cited from earlier work
[9] = not given; remark: listed apart in the source
[10] = Sprague Dawley, rat, in vivo; remark: listed apart in the source
[11] = Repeated oral co-administration of paclitaxel with CsA, plasma levels; format: in vivo, rats; settings: repeated regimen
[12] = oral; cited from earlier work
[13] = oral 3H-paclitaxel 9 mg/kg, cyclosporin dose 2 × 5 mg/kg oral
[14] = radioactivity of oral 3H-paclitaxel 9 mg/kg, cyclosporin dose 2 × 5 mg/kg oral
[15] = Grp C, etoposide 1/PO with CsA 5/PO before and with
[16] = Sprague Dawley, rat, in vivo, po
[17] = Sprague Dawley, rat, in vivo, po, 9 mg/kg
[18] = total radioactivity, Paclitaxel IV 9 mg/kg

For `CC(=O)O[C@]1(C(C)=O)CC[C@H]2[C@@H]3C=C(C)C4=CC(=O)CC[C@]4(C)[C@H]3CC[C@@]21C` [Magace, megestrol acetate], the t½ [1] was 23.1 h.

With `C/C=C/C[C@@H](C)[C@@H](OC(C)=O)[C@H]1C(=O)N[C@@H](CC)C(=O)N(C)CC(=O)N(C)[C@@H](CC(C)C)C(=O)N[C@@H](C(C)C)C(=O)N(C)[C@@H](CC(C)C)C(=O)N[C@@H](C)C(=O)N[C@H](C)C(=O)N(C)[C@@H](CC(C)C)C(=O)N(C)[C@@H](CC(C)C)C(=O)N(C)[C@@H](C(C)C)C(=O)N1C` [Cyclosporin Acetyl A, acetyl cyclosporin A] the “% Absorption” value [13] was 25.4% and the AUC0-24 [14] was 8.39 μg eq. hr/ml.

Compound `COc1cc([C@@H]2c3cc4c(cc3[C@@H](O[C@@H]3O[C@@H]5CO[C@@H](C)O[C@H]5[C@H](O)[C@H]3O)[C@H]3COC(=O)[C@H]23)OCO4)cc(OC)c1O` [Etoposide, etoposide] has a Cmax ([2]; Grp A, etoposide only 1/IV) of 2.16 ug*eq/mL, a t½ ([2]; Grp A, etoposide only 1/IV) of 26.5 h and an AUC0-24 ([2]; Grp A, etoposide only 1/IV, total radioactivity) of 1.08 µg·h/mL. For the same compound, the AUC0-24 ([2]; Grp B, etoposide only 1/PO) was 0.61 µg·h/mL, the Cmax ([2]; Grp B, etoposide only 1/PO) was 0.03 ug*eq/mL and the F % ([2]; Grp B, etoposide only 1/PO) was 56.5%. The t½ ([2]; Grp B, etoposide only 1/PO) was 19.1 h, the AUC0-24 [2, 15] was 1.04 µg·h/mL and the Cmax [2, 15] was 0.12 ug*eq/mL. The F % [2, 15] was 96.3%, the t½ [2, 15] was 18.1 h and the F % ([2]; Grp C, etoposide 1/PO with CsA 5/PO before and with, listed as etoposide) was “about 96%”. For the same compound, the “mean value of oral bioavailability” value [3] was “approximately 50%”.

`CCCC[C@@H](C)[C@@H](O)[C@H]1C(=O)N[C@@H](CC)C(=O)N(C)CC(=O)N(C)[C@@H](CC(C)C)C(=O)N[C@@H](C(C)C)C(=O)N(C)[C@@H](CC(C)C)C(=O)N[C@@H](C)C(=O)N[C@H](C)C(=O)N(C)[C@@H](CC(C)C)C(=O)N(C)[C@@H](CC(C)C)C(=O)N(C)[C@@H](C(C)C)C(=O)N1C` [Cyclosporin Dihydro A, dihydro cyclosporin A] gave an AUC0-24 [14] of 8.5 μg eq. hr/ml.

For `C/C=C/C[C@@H](C)[C@@H](O)[C@H]1C(=O)N[C@@H](C(C)C)C(=O)N(C)CC(=O)N(C)[C@@H](CC(C)C)C(=O)N[C@@H](C(C)C)C(=O)N(C)[C@@H](CC(C)C)C(=O)N[C@@H](C)C(=O)N[C@H](C)C(=O)N(C)[C@@H](CC(C)C)C(=O)N(C)[C@@H](CC(C)C)C(=O)N(C)[C@@H](C(C)C)C(=O)N1C` [Cyclosporin D, cyclosporin D], the immunosuppressive activity [4] is listed as “least immunosuppressive activity”.

With `CC(=O)N1CCN(c2ccc(OCC3COC(Cn4ccnc4)(c4ccc(Cl)cc4Cl)O3)cc2)CC1` (centres unmarked) [Ketoconazole, ketoconazole] the t½ [1] was 9.23 h.

In the case of `C/C=C/C[C@@H](C)C[C@H]1C(=O)N[C@@H](CC)C(=O)N(C)CC(=O)N(C)[C@@H](CC(C)C)C(=O)N[C@@H](C(C)C)C(=O)N(C)[C@@H](CC(C)C)C(=O)N[C@@H](C)C(=O)N[C@H](C)C(=O)N(C)[C@@H](CC(C)C)C(=O)N(C)[C@@H](CC(C)C)C(=O)N(C)[C@@H](C(C)C)C(=O)N1C` [Cyclosporin F, cyclosporin F], the AUC0-24 (oral 3H-paclitaxel 9 mg/kg, cyclosporin dose 2 × 10 mg/kg oral) is reported as 11.99 μg eq. hr/ml, the AUC0-24 [14] is reported as 8.99 μg eq. hr/ml and the “activity in promoting oral absorption of paclitaxel” value (whole blood radioactivity profiles, 5 mg/kg oral before and with paclitaxel 9 mg/kg) is reported as “enhances the oral bioavailability of paclitaxel”. The immunosuppressive activity [4] was “does not display immunosuppressive activity”.

In the case of `OCCN(CCO)c1nc(N2CCCCC2)c2nc(N(CCO)CCO)nc(N3CCCCC3)c2n1` [Dipyridamole, dipyridamole], the t½ [1] is reported as 26.6 h.

`CC(=O)[C@H]1CC[C@H]2[C@@H]3CCC4=CC(=O)CC[C@]4(C)[C@H]3CC[C@]12C` [Progesterone, progesterone] showed a t½ [1] of 20.0 h.

With `C/C=C/C[C@@H](C)[C@@H](O)[C@H]1C(=O)N[C@@H]([C@@H](C)O)C(=O)N(C)CC(=O)N(C)[C@@H](CC(C)C)C(=O)N[C@@H](C(C)C)C(=O)N(C)[C@@H](CC(C)C)C(=O)N[C@@H](C)C(=O)N[C@H](C)C(=O)N(C)[C@@H](CC(C)C)C(=O)N(C)[C@@H](CC(C)C)C(=O)N(C)[C@@H](C(C)C)C(=O)N1C` [Cyclosporin C, cyclosporin C] the “% Absorption” value [13] was 34.5% and the AUC0-24 [14] was 11.39 μg eq. hr/ml.

In the case of `C/C=C/C[C@@H](C)[C@@H](O)[C@H]1C(=O)N[C@@H](CC)C(=O)N(C)CC(=O)N(C)[C@@H](CC(C)C)C(=O)N[C@@H](C(C)C)C(=O)N[C@@H](CC(C)C)C(=O)N[C@@H](C)C(=O)N[C@H](C)C(=O)N(C)[C@@H](CC(C)C)C(=O)N(C)[C@@H](CC(C)C)C(=O)N(C)[C@@H](C(C)C)C(=O)N1C` [Cyclosporin U, cyclosporin U], the “% Absorption” value [13] is reported as 15.2% and the AUC0-24 [14] is reported as 5.02 μg eq. hr/ml.

With `C/C=C/C[C@@H](C)[C@@H](O)[C@H]1C(=O)N[C@@H](CCC)C(=O)N(C)CC(=O)N(C)[C@@H](CC(C)C)C(=O)N[C@@H](C(C)C)C(=O)N(C)[C@@H](CC(C)C)C(=O)N[C@@H](C)C(=O)N[C@H](C)C(=O)N(C)[C@@H](CC(C)C)C(=O)N(C)[C@@H](CC(C)C)C(=O)N(C)[C@@H](C(C)C)C(=O)N1C` [Cyclosporin G, cyclosporin G] the “% Absorption” value [13] was 40.0% and the AUC0-24 [14] was 13.22 μg eq. hr/ml.

In the case of `CC(=O)O[C@H]1C(=O)[C@@]2(C)[C@H]([C@H](OC(=O)c3ccccc3)[C@]3(O)C[C@H](OC(=O)[C@H](O)[C@@H](NC(=O)c4ccccc4)c4ccccc4)C(C)=C1C3(C)C)[C@]1(OC(C)=O)CO[C@@H]1C[C@@H]2O` [Paclitaxel, paclitaxel], the V ([5]; iv) is reported as 4.236 L/kg, the “AUC0-[…]” value ([5]; po) is reported as 0.349 µg·h/mL and the “F %” value ([5]; po) is reported as 1.7%. For the same compound, the V ([5]; po) was 5.029 L/kg, the bioavailability ([6]; in vivo, po) was < 1% and the AUC(0-t) ([6]; serum, oral, 9 mg/kg) was 0.08 µg·h/mL. The AUC0-24 ([7]; NP951001, paclitaxel only 9/IV) was 32.04 µg·h/mL, the AUC0-24 ([7]; NP951001, paclitaxel only 9/PO) was 3.24 µg·h/mL and the “% Dose in urine (4-24 hr)” value ([7]; Sprague Dawley, rat, in vivo, iv) was 2.2%. The “% Dose in urine (4-24 hr)” value [7, 16] was 1.9%, the AUC0-24 [7, 16] was 3.2 μg eq × hr/ml and the Tmax [7, 16] was 25 h. The AUC0-24 ([7]; total radioactivity in blood, IV (A)) was 32.8 μg eq × hr/ml, the response rate [8] was 27% and the “F (%) Based on AUC0-00” value [9, 16] was 16.4%. For the same compound, the “F (%) based on AUC0-24 hr” value [9, 16] was 5.9%, the AUC0-00 [9, 17] was 4.5 μg equiv. hr/mL and the AUC0-24 hr [9, 17] was 1.4 μg equiv. hr/mL. The AUC0-00 [9, 18] was 27.4 μg equiv. hr/mL, the AUC0-24 hr [9, 18] was 23.8 μg equiv. hr/mL and the “Absolute F” value [10] was 0.9%. For the same compound, the “steady state plasma levels of paclitaxel achieved” value [11] was “by the third day” and the “absorbed when administered orally” value [12] was “less than 1%”.

With “dihydro cyclosporin C [Cyclosporin Dihydro C]” the “% Absorption” value [13] was 45.1% and the AUC0-24 [14] was 13.09 μg eq. hr/ml.
